Patent publication US7935687B2, “Methods for treating spinal muscular atrophy using tetracycline compounds” (Paratek Pharmaceuticals, Inc., priority 2007, dated 2011)

Key:
S. aureus (SA RN450) = assay: Antibacterial MIC, gram positive; type: cell-based; settings: CLSI methodology, 35° C., 18-24 hours; for MIC: Staphylococcus aureus
E. coli (EC D1-209) = assay: Antibacterial MIC, gram negative; type: cell-based; settings: CLSI methodology, 35° C., 18-24 hours; for MIC: Escherichia coli
SMN2 mRNA = assay: In vitro cell-free splicing assay for inclusion of exon 7; type: biochemical; settings: HeLa cell nuclear extract, 30° C., 3 hours
Procedure: The following example illustrates how tetracycline compound of the invention are active in an in vitro cell-free assay for the inclusion of exon 7 in […] mRNA. SMN1 and SMN2 pre-mRNA were prepared by in vitro transcription using T7 RNA polymerase of minigene templates that include exon 6, a truncated portion of intron 6, exon 7, intron 7 and a portion of exon 8 in the presence of ^32P-UTP. Labeled RNA was purified on a denaturing polyacrylamide gel followed by phenol extraction and ethanol precipitation of the RNA.
In vitro cell-free splicing of SMN1 and SMN2 transcripts was carried out in a 10 μl reaction volume at 30° C. for 3 hours. The reactions contained 10 fmol of labeled pre-mRNA, 30% (3 VI) HeLa cell nuclear extract (in 20 mM HEPES, pH 7.4, 20% (v/v) glycerol, 0.1M KC1, 0.2 mM EDTA), 1.3% (w/v) polyvinyl alcohol, 1.56 mM MgCl2, 32 mM HEPES, pH 7.4, 0.5 mM ATP, 20 mM creatine phosphate and either 2 μl of test compound (in 20 mM HEPES, pH 7.4, 0.1M KC1, 0.2 mM EDTA) or buffer alone. Following incubation, 200 μl of a solution containing 0.3M NaAc and 0.2% SDS was added to the reaction. Proteins were removed by extraction with an equal volume of phenol and RNA was precipitated with 2.5 volumes of ethanol. RNA was resuspended in formamide sample buffer and separated on a 9% urea-denaturing polyacrylamide gel. Quantitation of splicing was based on phosphorimage analysis (Fujix BAS2000 or Fujifilm FLA-5100). In this assay, percentage exon 7 inclusion averages 12% for the unmutated SMN1 mRNA and 4% for the SMN2 mRNA.
The in vitro activities for exon 7 splicing are expressed as the Emax (the maximum percentage exon 7 inclusion observed) and Cmax (the lowest compound concentration at which the maximum inclusion occurs in μM). For Emax, percentage inclusion values of less than 10% are indicated by “*”, values of 10-20% are indicated by “**”, and values greater than 20% are indicated by “***”. For Cmax data, concentrations of greater than 40 μM are indicated by “*”, concentrations between 40 and 10 μM are represented by “**” and concentrations of less than 10 μM are represented by “***”.

Row | MIC (S. aureus (SA RN450)) | MIC (E. coli (EC D1-209)) | SMILES | MIC Gram Positive (SA RN450) (S. aureus (SA RN450)) | MIC Gram Negative (EC D1-209) (E. coli (EC D1-209)) | Cmax (lowest compound concentration at which the maximum exon 7 inclusion occurs) (SMN2 mRNA) | Emax (maximum percentage exon 7 inclusion observed) (SMN2 mRNA)
1 | – | – | CN(C)C1C(O)=C(C(N)=O)C(=O)C2(O)C(O)=C3C(=O)c4c(O)ccc(C(=O)Cc5cncn5C)c4CC3CC12 (centres unmarked) [CG] | *** (Good antibacterial activity (e.g., less than about 4 μg/mL)) | * (weak antibacterial activity (greater than about 8 μg/mL)) | * (concentrations of greater than 40 μM) | ** (values of 10-20%)
2 | – | – | COC(=O)C1CCN(Cc2ccc(O)c3c2CC2CC4C(N(C)C)C(O)=C(C(N)=O)C(=O)C4(O)C(O)=C2C3=O)CC1 (centres unmarked) [Compound AK] | *** (Good antibacterial activity (e.g., less than about 4 μg/mL)) | ** (modest antibacterial activity (between about 4 and 8 μg/mL)) | ** (concentrations between 40 and 10 μM) | * (percentage inclusion values of less than 10%)
3 | – | – | CN(C)CCCC(=O)Nc1cccc(-c2ccc(O)c3c2CC2CC4C(N(C)C)C(O)=C(C(N)=O)C(=O)C4(O)C(O)=C2C3=O)c1 (centres unmarked) [Compound Q] | *** (Good antibacterial activity (e.g., less than about 4 μg/mL)) | * (weak antibacterial activity (greater than about 8 μg/mL)) | *** (concentrations of less than 10 μM) | ** (values of 10-20%)
4 | – | – | CN(C)C1C(O)=C(C(N)=O)C(=O)C2(O)C(O)=C3C(=O)c4c(O)ccc(-c5cccc(C(=O)NCCN6CCCCC6)c5)c4CC3CC12 (centres unmarked) [U] | *** (Good antibacterial activity (e.g., less than about 4 μg/mL)) | ** (modest antibacterial activity (between about 4 and 8 μg/mL)) | ** (concentrations between 40 and 10 μM) | ** (values of 10-20%)
5 | – | – | CN(C)C1C(O)=C(C(N)=O)C(=O)C2(O)C(O)=C3C(=O)c4c(O)ccc(-c5cccc(C(=O)NCc6ccco6)c5)c4CC3CC12 (centres unmarked) [Y] | *** (Good antibacterial activity (e.g., less than about 4 μg/mL)) | * (weak antibacterial activity (greater than about 8 μg/mL)) | * (concentrations of greater than 40 μM) | ** (values of 10-20%)
6 | < 4 µg/mL | > 8 µg/mL | CCOC(=O)CCNC(=O)c1cccc(-c2ccc(O)c3c2C[C@H]2C[C@H]4[C@H](N(C)C)C(O)=C(C(N)=O)C(=O)[C@@]4(O)C(O)=C2C3=O)c1 [Compound I, 3-[3-((6aS,10S,10aS,11aR)-8-Carbamoyl-10-dimethylamino-4,6,6a,9-tetrahydroxy-5,7-dioxo-5,6a,7,10,10a,11,11a,12-octahydro-naphthacen-1-yl)-benzoylamino]-propionic Acid Ethyl Ester] | – | – | * (concentrations of greater than 40 μM) | *** (values greater than 20%)
7 | – | – | CN(C)CCNC(=O)c1cccc(-c2ccc(O)c3c2CC2CC4C(N(C)C)C(O)=C(C(N)=O)C(=O)C4(O)C(O)=C2C3=O)c1 (centres unmarked) [Compound A] | *** (Good antibacterial activity (e.g., less than about 4 μg/mL)) | * (weak antibacterial activity (greater than about 8 μg/mL)) | ** (concentrations between 40 and 10 μM) | ** (values of 10-20%)
8 | – | – | CN(C)CCCNC(=O)c1cccc(-c2ccc(O)c3c2CC2CC4C(N(C)C)C(O)=C(C(N)=O)C(=O)C4(O)C(O)=C2C3=O)c1 (centres unmarked) [P] | ** (modest antibacterial activity (between about 4 and 8 μg/mL)) | * (weak antibacterial activity (greater than about 8 μg/mL)) | ** (concentrations between 40 and 10 μM) | ** (values of 10-20%)
9 | – | – | CN(C)C1C(O)=C(C(N)=O)C(=O)C2(O)C(O)=C3C(=O)c4c(O)ccc(C(=O)CNCc5ccco5)c4CC3CC12 (centres unmarked) [CC] | ** (modest antibacterial activity (between about 4 and 8 μg/mL)) | * (weak antibacterial activity (greater than about 8 μg/mL)) | *** (concentrations of less than 10 μM) | ** (values of 10-20%)
10 | < 4 µg/mL | > 8 µg/mL | CN(C)CC(=O)Nc1cccc(-c2ccc(O)c3c2C[C@H]2C[C@H]4[C@H](N(C)C)C(O)=C(C(N)=O)C(=O)[C@@]4(O)C(O)=C2C3=O)c1 [Compound K, (4S,4aS,5aR,12aS)-4-Dimethylamino-7-[3-(2-dimethylamino-acetylamino)-phenyl]-3,10,12,12a-tetrahydroxy-1,11-dioxo-1,4,4a,5,5a,6,11,12a-octahydro-naphthacene-2-carboxylic Acid Amide] | – | – | * (concentrations of greater than 40 μM) | * (percentage inclusion values of less than 10%)
11 | < 4 µg/mL | > 8 µg/mL | CCN(CC)CCNC(=O)c1cccc(-c2ccc(O)c3c2C[C@H]2C[C@H]4[C@H](N(C)C)C(O)=C(C(N)=O)C(=O)[C@@]4(O)C(O)=C2C3=O)c1 [Compound E, (4S,4aS,5aR,12aS)-7-[3-(2-Diethylamino-ethylcarbamoyl)-phenyl]-4-dimethylamino-3,10,12,12a-tetrahydroxy-1,11-dioxo-1,4,4a,5,5a,6,11,12a-octahydro-naphthacene-2-carboxylic Acid Amide] | – | – | ** (concentrations between 40 and 10 μM) | *** (values greater than 20%)
12 | – | – | COCCNC(=O)c1cccc(-c2ccc(O)c3c2CC2CC4C(N(C)C)C(O)=C(C(N)=O)C(=O)C4(O)C(O)=C2C3=O)c1 (centres unmarked) [L] | *** (Good antibacterial activity (e.g., less than about 4 μg/mL)) | * (weak antibacterial activity (greater than about 8 μg/mL)) | * (concentrations of greater than 40 μM) | ** (values of 10-20%)
13 | – | – | CN(Cc1cccnc1)Cc1cccc(-c2ccc(O)c3c2CC2CC4C(N(C)C)C(O)=C(C(N)=O)C(=O)C4(O)C(O)=C2C3=O)c1 (centres unmarked) [BJ] | *** (Good antibacterial activity (e.g., less than about 4 μg/mL)) | * (weak antibacterial activity (greater than about 8 μg/mL)) | *** (concentrations of less than 10 μM) | ** (values of 10-20%)
14 | – | – | CN(C)C1C(O)=C(C(N)=O)C(=O)C2(O)C(O)=C3C(=O)c4c(O)ccc(-c5cccc(CCCO)c5)c4CC3CC12 (centres unmarked) [CM] | *** (Good antibacterial activity (e.g., less than about 4 μg/mL)) | * (weak antibacterial activity (greater than about 8 μg/mL)) | *** (concentrations of less than 10 μM) | ** (values of 10-20%)
15 | – | – | CN(C)CCCNC(=O)c1cccc(-c2ccc(O)c3c2CC2CC4C(N(C)C)C(O)=C(C(N)=O)C(=O)C4(O)C(O)=C2C3=O)c1 (centres unmarked) [J] | *** (Good antibacterial activity (e.g., less than about 4 μg/mL)) | * (weak antibacterial activity (greater than about 8 μg/mL)) | *** (concentrations of less than 10 μM) | ** (values of 10-20%)
16 | – | – | CN(C)C1C(O)=C(C(N)=O)C(=O)C2(O)C(O)=C3C(=O)c4c(O)ccc(-c5ccc(CNCc6cccnc6)o5)c4CC3CC12 (centres unmarked) [BI] | *** (Good antibacterial activity (e.g., less than about 4 μg/mL)) | *** (Good antibacterial activity (e.g., less than about 4 μg/mL)) | *** (concentrations of less than 10 μM) | ** (values of 10-20%)
17 | – | – | CN(C)C1C(O)=C(C(N)=O)C(=O)C2(O)C(O)=C3C(=O)c4c(O)ccc(-c5coc(CN6CCCCC6)c5)c4CC3CC12 (centres unmarked) [BF] | *** (Good antibacterial activity (e.g., less than about 4 μg/mL)) | *** (Good antibacterial activity (e.g., less than about 4 μg/mL)) | *** (concentrations of less than 10 μM) | ** (values of 10-20%)
